Experiments:
[1] = test system: oedema induced by carrageenin, dextran and formalin; assay: Anti-inflammatory activity tests (oedema by carrageenin, dextran and formalin); assay type: in vivo; settings: rat
Experimental: (§1) Pharmacological tests were carried out to evaluate the acute toxicity, anti-inflammatory and capillary permeability action, antipyretic, analgesic and anti-spasmodic in vitro action.

[2] = test system: edema induced by dextran; assay: Anti-inflammatory activity, dextran-induced edema; assay type: in vivo, rat; settings: po; 500 mg/kg p.o. rat; read-out: % inhibition of edema induced by dextran
Experimental: as §1

[3] = test system: spasm by acetylcholine; assay: Antispasmodic activity in vitro, spasm by acetylcholine
Experimental: as §1

[4] = Antipyretic activity; assay type: in vivo, rat; settings: for Antipyretic activity (potency in comparison with aspirin = 100): 400 mg/kg p.o. rat; for Antipyretic action (in words): rat, in vivo
Experimental: as §1

[5] = test system: granuloma; assay: Granuloma cotton pellet test; settings: for inhibition in vivo at 200 mg/kg: Rattus norvegicus, po, read-out: % inhibition of granuloma
Experimental: as §1

[6] = Analgesic activity, protection from writhing; assay type: in vivo, mouse; settings: po; 500 mg/kg p.o. mouse; read-out: Analgesic activity, protection from writhing %
Experimental: as §1

[7] = in vivo; settings: mouse, in vivo, po
[8] = Analgesic activity, hot plate test; assay type: in vivo, mouse; settings: po; 500 mg/kg p.o. mouse; hot plate test; read-out: Analgesic activity, increase of reaction time %
Experimental: as §1

[9] = test system: edema induced by carrageenan; assay: Anti-inflammatory activity, carrageenin-induced oedema; assay type: in vivo, rat; settings: po; 500 mg/kg p.o. rat; read-out: % inhibition of edema induced by carrageenan
From the text: Beginning, therefore, with D-glucose, we have prepared 1,2:5,6-di-O-isopropylidene-α-D-glucofuranose (II): [drawing 2] as well as 1,2-O-isopropylidene-α-D-glucofuranose and 1,2-O-isopropylidene-3,5,6-tri-O-benzyl-α-D-glucofuranose (1; Glen W. L., Myers G. S., Grant G. A., J. Chem. Soc., 2568/1951; (2) Meyer A. S., Reichstein T., Helv. Chim. Acta, 29, 139/1946; (3) Huber G., Rossi A., Helv. Chim. Acta, 51, 1185/1968) and have compared these compounds with (I) for anti-inflammatory activity against carrageenin-induced oedema (500 mg/kg, p.o. in rats).

[10] = test system: spasm by histamine; assay: Antispasmodic activity in vitro, spasm by histamine
Experimental: as §1

[11] = test system: edema induced by formalin; assay: Anti-inflammatory activity, formalin-induced edema; assay type: in vivo, rat; settings: po; 500 mg/kg p.o. rat; read-out: % inhibition of edema induced by formalin
Experimental: as §1

[12] = test system: capillary permeability; assay: Capillary permeability test; settings: 500 mg/kg p.o. mouse
Experimental: as §1

Row | SMILES | Anti-inflammatory potency compared with aspirin and phenylbutazone (in words) [1] | Inhibition of oedema induced by carrageenin, dextran and formalin, compared with (I) (in words) [1] | inhibition in vivo at 500 mg/kg [2] [%] | Activity against spasms produced by acetylcholine (in words) [3] | Antispasmodic activity in vitro, ED50, inhib. of spasm by acetylcholine [3] [µg/mL] | Antipyretic activity (potency in comparison with aspirin = 100) [4] [%] | Antipyretic action (in words) [4] | inhibition in vivo at 200 mg/kg [5] [%] | inhibition in vivo at 500 mg/kg [6] [%] | LD50 [7] [mg/kg] | change in vivo at 500 mg/kg [8] [%] | inhibition in vivo at 500 mg/kg [9] [%] | Antispasmodic activity in vitro, ED50, inhib. of spasm by histamine [10] [µg/mL] | inhibition in vivo at 500 mg/kg [11] [%] | Capillary permeability, decrease % [12] [%] | Inhibition of spasms induced by histamine (in words) [10] | Inhibitory activity in the granuloma cotton pellet test (in words) ([5]; rat, in vivo)
1 | C#CCOC1C(C2COC(C)(C)O2)OC2OC(C)(C)OC21 (centres unmarked) [X] | as potent as or more potent than aspirin and phenylbutazone | clearly more active than (I) | 65 | moderately active | 50 | 107 | retained | 0 | 20 | 1500 | 0 | 53 | 50 | 36 | – | – | –
2 | CCOC1C(C2COC(C)(C)O2)OC2OC(C)(C)OC21 (centres unmarked) [IV] | – | – | 14 | – | > 100 | 31 | – | – | 0 | 2000 | 30 | 37 | 150 | 33 | 42 | – | –
3 | CCN(CC)CCOC1C(C2COC(C)(C)O2)OC2OC(C)(C)OC21 (centres unmarked) [XV] | – | – | 58 | – | > 100 | 8 | – | 0 | 0 | 3000 | 10 | 60 | 100 | 4 | 20 | – | –
4 | CCCCOC1C(C2COC(C)(C)O2)OC2OC(C)(C)OC21 (centres unmarked) [VI] | – | – | 13 | – | > 100 | 51 | retained | – | 0 | 3000 | 40 | 33 | > 100 | 24 | 57 | – | –
5 | CCCOC1C(C2COC(C)(C)O2)OC2OC(C)(C)OC21 (centres unmarked) [V] | – | – | 0 | – | > 100 | 37 | – | – | 20 | 1000 | 10 | 28 | > 100 | 0 | 53 | – | –
6 | CCCN(CCC)CCOC1C(C2COC(C)(C)O2)OC2OC(C)(C)OC21 (centres unmarked) [XVI] | – | – | 41 | – | 100 | 29 | – | 0 | 0 | 750 | 0 | 23 | 12 | 24 | – | inhibited spasms induced by histamine at relatively low concentrations | –
7 | CC(C)N(CCOC1C(C2COC(C)(C)O2)OC2OC(C)(C)OC21)C(C)C (centres unmarked) [XVII] | – | – | 35 | – | 100 | 15 | – | 0 | 40 | 1000 | 0 | 73 | 70 | 32 | 32 | – | –
8 | CC1(C)OCC(C2OC3OC(C)(C)OC3C2OCC(=O)O)O1 [XIII, 3-Carboxymethyl-1,2:5,6-di-O-isopropylidene-α-D-glucofuranose] | – | – | 4 | – | > 100 | 5 | – | – | 0 | > 4000 | 0 | 10 | > 100 | 18 | 14 | – | –
9 | CC1(C)OCC(C2OC3OC(C)(C)OC3C2OCCN(Cc2ccccc2)Cc2ccccc2)O1 (centres unmarked) [XXI] | – | – | 17 | – | – | 25 | – | – | 60 | > 2000 | 0 | 29 | – | 19 | – | – | –
10 | CC1(C)OCC(C2OC3OC(C)(C)OC3C2OCCN2CCCCC2)O1 (centres unmarked) [XIX] | – | – | 56 | – | – | 55 | retained | – | – | > 1000 | – | 64 | – | 28 | 17 | – | –
11 | CC1(C)OCC(C2OC3OC(C)(C)OC3C2OCCN2CCOCC2)O1 (centres unmarked) [XX] | – | – | 65 | – | > 100 | 14 | – | 0 | 0 | 1500 | 40 | 59 | > 100 | 43 | 58 | – | –
12 | CCCCCOC1C(C2COC(C)(C)O2)OC2OC(C)(C)OC21 [VII, 3-n-Pentyl-1,2:5,6-di-O-isopropylidene-α-D-glucofuranose] | as potent as or more potent than aspirin and phenylbutazone | clearly more active than (I) | 31 | – | > 100 | 0 | – | 19 | 20 | 4000 | 0 | 62 | > 100 | 48 | 4 | – | some inhibitory activity
13 | CN(C)CCOC1C(C2COC(C)(C)O2)OC2OC(C)(C)OC21 [XIV, 3-(2-Dimethylaminoethyl)-1,2:5,6-di-O-isopropylidene-α-D-glucofuranose] | – | – | 54 | – | > 100 | 43 | retained | 0 | 20 | 1500 | 10 | 62 | 100 | 28 | 35 | – | –
14 | CC1(C)OCC(C2OC3OC(C)(C)OC3C2OCCN2CCCC2)O1 (centres unmarked) [XVIII] | – | – | 64 | – | > 100 | 0 | – | 0 | 0 | 1500 | 10 | 68 | 100 | 38 | 50 | – | –
15 | COC1C(C2COC(C)(C)O2)OC2OC(C)(C)OC21 (centres unmarked) [III] | as potent as or more potent than aspirin and phenylbutazone | clearly more active than (I) | 35 | – | > 100 | 70 | retained | 0 | 20 | 2000 | 20 | 51 | 100 | 25 | 37 | – | –
